Assay results: ChEMBL document CHEMBL5096208, “Installation of Pargyline, a LSD1 Inhibitor, in the HDAC Inhibitory Template Culminated in the Identification of a Tractable Antiprostate Cancer Agent” (J Med Chem, 2021)

Key:
Histone deacetylase 2 = Histone deacetylase 2 (Homo sapiens, UniProt Q92769); assay: Inhibition of human HDAC2 (379 to 382 residues) using RHKKAc as flurogenic substrate
Histone deacetylase 3 = Histone deacetylase 3 (Homo sapiens, UniProt O15379); assay: Inhibition of human HDAC3 (379 to 382 residues) using RHKKAc as flurogenic substrate
Histone deacetylase 4 = Histone deacetylase 4 (Homo sapiens, UniProt P56524); assay: Inhibition of human HDAC4 using Boc-Lys(trifluoroacetyl)-AMC as flurogenic substrate
Histone deacetylase 9 = Histone deacetylase 9 (Homo sapiens, UniProt Q9UKV0); assay: Inhibition of human HDAC9 using Boc-Lys(trifluoroacetyl)-AMC as flurogenic substrate
Homo sapiens [1] = species on record: Homo sapiens; assay: Selectivity ratio of IC50 for human HDAC3 to IC50 for human HDAC6
Homo sapiens [2] = species on record: Homo sapiens; assay: Selectivity ratio of IC50 for human HDAC4 to IC50 for human HDAC6
Homo sapiens [3] = species on record: Homo sapiens; assay: Selectivity ratio of IC50 for human HDAC5 to IC50 for human HDAC6
Homo sapiens [4] = species on record: Homo sapiens; assay: Selectivity ratio of IC50 for […] IC50 for human full length recombinant MAO-B
[5] = AUC (0 to infinity) in Sprague-Dawley rat at 2 mg/kg, iv administered as single dose through tail vein measured upto 24 hrs post dose by UPLC-MS/MS analysis; format: ADME, organism-based; parameters: dose 2 mg/kg, time < 24 hrs, route iv; details: in vivo
[6] = Half life in Sprague-Dawley rat at 25 mg/kg, po formulated using SMEDDS administered once via gavage measured upto 24 hrs post dose by UPLC-MS/MS analysis; format: ADME, organism-based; details: in vivo
[7] = Metabolic stability in Sprague-Dawley rat hepatocyte assessed as parent compound remaining at 10 uM incubated for 240 mins by LC-MS/MS analysis; format: ADME, cell-based; details: hepatocytes, read-out: Stability
[8] = Metabolic stability in human hepatocyte assessed as parent compound remaining at 10 uM incubated for 60 mins by LC-MS/MS analysis; format: ADME, cell-based; details: hepatocytes, read-out: Stability
[9] = Metabolic stability in human hepatocyte assessed as intrinsic clearance at 10 uM by LC-MS/MS analysis; format: ADME, cell-based; details: hepatocytes, read-out: CLH
DU-145 = assay: Antitumor activity against human DU-145 cells xenografted in athymic nude mouse assessed as tumor growth inhibition at 50 mg/kg, po qd measured upto 60 days by caliper method relative to control; format: functional; details: DU-145, 1440 h, time <= 60 day, read-out: TGI

Chain of Histone deacetylase 3 (O15379 whole entry, the tested form may be a part): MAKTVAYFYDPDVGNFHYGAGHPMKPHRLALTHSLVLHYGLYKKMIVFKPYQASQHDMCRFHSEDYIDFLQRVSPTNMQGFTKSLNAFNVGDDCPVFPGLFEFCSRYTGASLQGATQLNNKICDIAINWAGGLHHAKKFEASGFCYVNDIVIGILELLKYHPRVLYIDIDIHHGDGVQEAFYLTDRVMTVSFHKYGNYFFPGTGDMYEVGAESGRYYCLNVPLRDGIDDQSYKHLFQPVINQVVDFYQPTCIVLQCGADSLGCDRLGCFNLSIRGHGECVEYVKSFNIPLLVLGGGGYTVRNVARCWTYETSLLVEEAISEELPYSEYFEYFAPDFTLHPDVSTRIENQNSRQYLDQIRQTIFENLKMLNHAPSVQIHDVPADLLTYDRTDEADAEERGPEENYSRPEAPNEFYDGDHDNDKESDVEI
Chain of Histone deacetylase 2 (Q92769 whole entry, the tested form may be a part): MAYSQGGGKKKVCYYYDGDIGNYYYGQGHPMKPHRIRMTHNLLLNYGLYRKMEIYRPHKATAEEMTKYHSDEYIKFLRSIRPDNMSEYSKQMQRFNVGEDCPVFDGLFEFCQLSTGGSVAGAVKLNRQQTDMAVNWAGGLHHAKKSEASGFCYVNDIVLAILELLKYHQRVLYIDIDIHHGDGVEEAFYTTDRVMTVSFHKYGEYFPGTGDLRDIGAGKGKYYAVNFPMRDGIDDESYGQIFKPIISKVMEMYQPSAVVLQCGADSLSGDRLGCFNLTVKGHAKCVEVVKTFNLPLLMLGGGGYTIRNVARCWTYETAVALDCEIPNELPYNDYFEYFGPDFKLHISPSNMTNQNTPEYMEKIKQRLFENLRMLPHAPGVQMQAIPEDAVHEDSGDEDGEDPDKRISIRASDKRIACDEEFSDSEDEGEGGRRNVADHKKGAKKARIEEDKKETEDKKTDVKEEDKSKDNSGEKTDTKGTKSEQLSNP
Chain of Histone deacetylase 4 (P56524 whole entry): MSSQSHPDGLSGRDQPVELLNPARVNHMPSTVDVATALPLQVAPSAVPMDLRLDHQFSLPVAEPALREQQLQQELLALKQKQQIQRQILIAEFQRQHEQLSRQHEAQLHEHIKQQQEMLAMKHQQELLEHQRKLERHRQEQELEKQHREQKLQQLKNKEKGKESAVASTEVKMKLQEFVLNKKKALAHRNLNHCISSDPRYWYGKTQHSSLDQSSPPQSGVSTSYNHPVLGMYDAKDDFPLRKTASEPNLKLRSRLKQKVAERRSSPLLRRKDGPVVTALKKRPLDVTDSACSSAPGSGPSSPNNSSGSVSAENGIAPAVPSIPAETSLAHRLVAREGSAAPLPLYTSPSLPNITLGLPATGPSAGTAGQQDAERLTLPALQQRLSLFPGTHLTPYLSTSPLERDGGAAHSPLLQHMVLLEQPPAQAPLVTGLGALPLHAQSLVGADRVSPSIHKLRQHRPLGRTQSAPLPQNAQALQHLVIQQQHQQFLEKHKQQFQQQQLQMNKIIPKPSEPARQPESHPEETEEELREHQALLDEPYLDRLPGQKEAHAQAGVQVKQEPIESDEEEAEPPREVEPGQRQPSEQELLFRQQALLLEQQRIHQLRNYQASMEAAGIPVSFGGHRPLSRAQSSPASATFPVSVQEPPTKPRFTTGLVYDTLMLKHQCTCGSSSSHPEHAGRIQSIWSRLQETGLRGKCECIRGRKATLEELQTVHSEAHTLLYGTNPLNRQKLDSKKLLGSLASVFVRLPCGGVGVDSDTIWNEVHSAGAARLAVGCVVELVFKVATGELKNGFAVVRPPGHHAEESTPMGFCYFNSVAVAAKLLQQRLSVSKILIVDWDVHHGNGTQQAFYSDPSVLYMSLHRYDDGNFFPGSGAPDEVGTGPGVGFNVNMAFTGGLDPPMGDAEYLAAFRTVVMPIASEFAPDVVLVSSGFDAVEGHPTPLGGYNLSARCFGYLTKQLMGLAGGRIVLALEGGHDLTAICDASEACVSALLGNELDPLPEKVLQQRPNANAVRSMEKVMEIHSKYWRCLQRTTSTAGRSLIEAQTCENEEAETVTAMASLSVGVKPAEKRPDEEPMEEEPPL
Chain of Histone deacetylase 9 (Q9UKV0 whole entry): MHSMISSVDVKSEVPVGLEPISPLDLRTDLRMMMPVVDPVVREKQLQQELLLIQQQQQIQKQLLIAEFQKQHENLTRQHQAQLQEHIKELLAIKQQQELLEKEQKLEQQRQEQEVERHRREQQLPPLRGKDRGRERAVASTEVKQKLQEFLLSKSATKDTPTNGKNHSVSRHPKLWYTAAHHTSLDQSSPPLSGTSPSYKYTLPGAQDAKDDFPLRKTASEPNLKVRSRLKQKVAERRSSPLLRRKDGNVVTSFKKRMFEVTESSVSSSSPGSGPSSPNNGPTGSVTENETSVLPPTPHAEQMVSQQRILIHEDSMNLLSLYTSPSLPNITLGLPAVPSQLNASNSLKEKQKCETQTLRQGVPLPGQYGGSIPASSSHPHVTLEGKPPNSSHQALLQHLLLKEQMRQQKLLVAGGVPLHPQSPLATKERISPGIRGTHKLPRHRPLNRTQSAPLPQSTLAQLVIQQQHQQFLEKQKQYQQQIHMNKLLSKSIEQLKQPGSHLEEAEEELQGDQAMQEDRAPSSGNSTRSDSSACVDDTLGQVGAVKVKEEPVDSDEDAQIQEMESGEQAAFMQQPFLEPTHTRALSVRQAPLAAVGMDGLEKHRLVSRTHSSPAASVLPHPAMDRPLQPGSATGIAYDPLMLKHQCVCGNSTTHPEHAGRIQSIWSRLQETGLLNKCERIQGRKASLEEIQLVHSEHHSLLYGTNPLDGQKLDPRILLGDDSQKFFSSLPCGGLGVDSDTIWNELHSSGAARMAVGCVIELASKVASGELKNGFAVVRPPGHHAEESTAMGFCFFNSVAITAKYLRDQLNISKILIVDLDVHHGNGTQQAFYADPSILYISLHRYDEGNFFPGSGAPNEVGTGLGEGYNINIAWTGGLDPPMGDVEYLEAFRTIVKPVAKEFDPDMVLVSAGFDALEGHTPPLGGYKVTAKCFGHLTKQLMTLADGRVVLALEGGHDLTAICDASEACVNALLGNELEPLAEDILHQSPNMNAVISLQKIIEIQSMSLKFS

IC50 (Histone deacetylase 2): 1540 nM
IC50 (Histone deacetylase 3): 133 nM
IC50 (Histone deacetylase 4): > 10000 nM
IC50 (Histone deacetylase 9): > 10000 nM
Ratio IC50 (Homo sapiens [1]): 5.8
Ratio IC50 (Homo sapiens [2]): > 500
Ratio IC50 (Homo sapiens [3]): 670
Ratio IC50 (Homo sapiens [4]): 84
AUC(0-inf) [5]: 76.8 ng·h/mL
half-life [6]: 4.3 h
remaining at 4 h, 10 µM [7]: 15.9%
remaining at 1 h, 10 µM [8]: 102%
CLint scaled at 10 µM [9]: 9.78 mL/min/kg
Compound: C#CCN(C)Cc1cccc(NC(=O)CCCCCCC(=O)NO)c1
inhibition in vivo at 50 mg/kg (DU-145): 65.8%
